Converted amounts (≈) assume the structure as drawn.

Results on 19 compounds are retold here after patent US9447086B2, “6-amino acid heteroaryldihydropyrimidines for the treatment and prophylaxis of hepatitis B virus infection” (priority 2012, dated 2016).

Data set [1] in a line: Metabolic stability study in human microsome. In kind it is in vitro ADME. On the procedure:
Human Microsomes were preincubated with test compound for 10 min at 37° C. in 100 mM phosphate buffer, pH 7.4. The reactions were initiated by adding NADPH or NADPH regenerating system to give a final incubation volume of 400 μL. For NADPH system, the final incubations contained 1 μM test compound, 0.5 mg/mL liver microsomal protein, 1 mM NADPH in 100 mM phosphate buffer, pH 7.4. For the NADPH regenerating system, the final incubations contained 1 μM test compound, 0.5 mg/mL liver microsomal protein, 3 mM glucose 6-phosphate, 1 mM NADP, 3 mM MgCl2 and 0.05 mg/mL glucose 6-phosphate dehydrogenase in 100 mM phosphate buffer, pH 7.4. After incubation times of 0, 3, 6, 9, 15 and 30 minutes at 37° C., 50 μL samples was removed and transferred to 150 μL methanol solution which was maintained at 4° C. containing 2 μM tolbutamide (internal standard) to terminating the reaction. Following precipitation and centrifugation, the amount of compound remaining in the samples were determined by LC-MS/MS. Controls of no NADPH or NADPH regenerating system at zero and 30 min were also prepared and analyzed.

A short description of data set [2]: Lyophilisation solubility assay (Lysa). In kind it is physicochemical. The note with it: phosphate buffer, pH 6.5, aqueous buffer, thermodynamic from solid. Here is the method:
The aqueous solubility is an important physico-chemical property that plays a significant role in various physical and biological processes. It is desirable to have good solubility which enables good permeability and gastric and intestinal absorption, linear dose proportionality, less PK variability, and easy formulation for PD/PK studies. […] Lyophilisation solubility assay (Lysa) is a well adopted high throughput assay to measure compound solubility in industry.
Samples are prepared in duplicate from 10 mM DMSO stock solutions. After evaporation of DMSO with a centrifugal vacuum evaporator, the residue is solved in 0.05 M phosphate buffer (pH 6.5), stirred for one hour and shaken for two hours. After one night, the solutions is filtered using a microtiter filter plate and the filtrate and its 1/10 dilution are then analyzed by direct UV measurement or by HPLC-UV. […] The results are in μg/mL.

Take `COC(=O)C1=C(CN2CC(F)(F)C[C@H]2C(=O)O)NC(c2nccs2)=NC1c1ccc(F)cc1Cl` (stereo partly drawn) [Example 1, 6-((S)-2-Carboxy-4,4-difluoro-pyrrolidin-1-ylmethyl)-4-(2-chloro-4-fluoro-phenyl)-2-thiazol-2-yl-1,4-dihydro-pyrimidine-5-carboxylic acid methyl ester]: the “Human Hepatic Clearance” value in data set [1] is 7.51 mL/min/kg. Turning to `COC(=O)C1=C(CN2CC(F)(F)CCC2C(=O)O)NC(c2nccs2)=N[C@H]1c1ccc(F)cc1Cl` (stereo partly drawn) [Example 7, (R)-6-(2-Carboxy-5,5-difluoro-piperidin-1-ylmethyl)-4-(2-chloro-4-fluoro-phenyl)-2-thiazol-2-yl-1,4-dihydro-pyrimidine-5-carboxylic acid methyl ester], in data set [1], the “Human Hepatic Clearance” value was determined as 6.12 mL/min/kg. Moreover, in data set [2], the thermodynamic solubility (usually solubility found after equilibrating the solid with the medium) was 398 µg/mL (≈ 752 µM).

`COC(=O)C1=C(CN2CC(F)(F)C[C@H]2C(=O)O)NC(c2cc(C)ccn2)=N[C@H]1c1ccc(F)cc1Cl` [Example 8, (R)-6-((S)-2-Carboxy-4,4-difluoro-pyrrolidin-1-ylmethyl)-4-(2-chloro-4-fluoro-phenyl)-2-(4-methyl-pyridin-2-yl)-1,4-dihydro-pyrimidine-5-carboxylic acid methyl ester]: the “Human Hepatic Clearance” value in data set [1] was determined as 6.33 mL/min/kg. The same compound showed a solubility (thermodynamic) in data set [2] of over 620 µg/mL. The corresponding values for `COC(=O)C1=C(CN2CCOC[C@H]2C(=O)O)NC(c2cc(C)ccn2)=N[C@H]1c1ccc(F)cc1Cl` [Example 9, (S)-4-[(R)-6-(2-Chloro-4-fluoro-phenyl)-5-methoxycarbonyl-2-(4-methyl-pyridin-2-yl)-3,6-dihydro-pyrimidin-4-ylmethyl]-morpholine-3-carboxylic acid] are 10.07 mL/min/kg and over 645 µg/mL. The corresponding values for `COC(=O)C1=C(CN2CCOC[C@H]2C(=O)O)NC(c2nccn2C)=NC1c1ccc(F)cc1Cl` (stereo partly drawn) [Example 13, (S)-4-[6-(2-Chloro-4-fluoro-phenyl)-5-methoxycarbonyl-2-(1-methyl-1H-imidazol-2-yl)-3,6-dihydro-pyrimidin-4-ylmethyl]-morpholine-3-carboxylic acid] are 2.33 mL/min/kg and 594 µg/mL (≈ 1210 µM). On to `COC(=O)C1=C(CN2CC(F)(F)C[C@H]2C(=O)O)NC(c2nc(C)co2)=N[C@H]1c1ccc(F)cc1Cl` [Example 15, (R)-6-((S)-2-Carboxy-4,4-difluoro-pyrrolidin-1-ylmethyl)-4-(2-chloro-4-fluoro-phenyl)-2-(4-methyl-oxazol-2-yl)-1,4-dihydro-pyrimidine-5-carboxylic acid methyl ester], for which the “Human Hepatic Clearance” value in data set [1] is listed as 3.53 mL/min/kg. In data set [2], the thermodynamic solubility is over 627 µg/mL. On the same counts, the results for `COC(=O)C1=C(CN2CC(F)(F)C[C@H]2C(=O)O)NC(c2nccs2)=N[C@H]1c1cc(F)c(F)cc1Cl` [Example 18, (R)-6-((S)-2-Carboxy-4,4-difluoro-pyrrolidin-1-ylmethyl)-4-(2-chloro-4,5-difluoro-phenyl)-2-thiazol-2-yl-1,4-dihydro-pyrimidine-5-carboxylic acid methyl ester] are 3.38 mL/min/kg and over 659 µg/mL. Take `COC(=O)C1=C(CN2CC(F)(F)C[C@H]2C(=O)O)NC(c2nc(C)cn2C)=NC1c1ccc(F)cc1Cl` (stereo partly drawn) [Example 20, 6-((S)-2-Carboxy-4,4-difluoro-pyrrolidin-1-ylmethyl)-4-(2-chloro-4-fluoro-phenyl)-2-(1,4-dimethyl-1H-imidazol-2-yl)-1,4-dihydro-pyrimidine-5-carboxylic acid methyl ester]: in data set [1], the “Human Hepatic Clearance” value is on record as 10.74 mL/min/kg. In addition, the solubility (thermodynamic) in data set [2] is 683 µg/mL (≈ 1300 µM).

In the case of `COC(=O)C1=C(CN2CCOC[C@H]2C(=O)O)NC(c2nccs2)=N[C@H]1c1cc(F)c(F)cc1Cl` [Example 21, (S)-4-[(R)-6-(2-Chloro-4,5-difluoro-phenyl)-5-methoxycarbonyl-2-thiazol-2-yl-3,6-dihydro-pyrimidin-4-ylmethyl]-morpholine-3-carboxylic acid], the “Human Hepatic Clearance” value in data set [1] was 3.08 mL/min/kg. In data set [2], this compound came in with a thermodynamic solubility of 828 µg/mL (≈ 1610 µM). On the same counts, the results for `COC(=O)C1=C(CN2CC(F)(F)C[C@H]2C(=O)O)NC(c2ncccc2F)=N[C@H]1c1ccc(F)cc1Cl` [Example 22, (R)-6-((S)-2-Carboxy-4,4-difluoro-pyrrolidin-1-ylmethyl)-4-(2-chloro-4-fluoro-phenyl)-2-(3-fluoro-pyridin-2-yl)-1,4-dihydro-pyrimidine-5-carboxylic acid methyl ester] are 4.82 mL/min/kg and 630 µg/mL (≈ 1200 µM). The corresponding values for `CCOC(=O)C1=C(CN2CC(F)(F)C[C@H]2C(=O)O)NC(c2nccs2)=NC1c1ccc(F)cc1Cl` (stereo partly drawn) [Example 26, 6-((S)-2-Carboxy-4,4-difluoro-pyrrolidin-1-ylmethyl)-4-(2-chloro-4-fluoro-phenyl)-2-thiazol-2-yl-1,4-dihydro-pyrimidine-5-carboxylic acid ethyl ester] are 10.02 mL/min/kg and 668 µg/mL (≈ 1260 µM). On to `COC(=O)C1=C(CN2CC(F)(F)C[C@H]2C(=O)O)NC(c2cc(C)cs2)=N[C@H]1c1ccc(F)cc1Cl` [Example 27, (R)-6-((S)-2-Carboxy-4,4-difluoro-pyrrolidin-1-ylmethyl)-4-(2-chloro-4-fluoro-phenyl)-2-(4-methyl-thiophen-2-yl)-1,4-dihydro-pyrimidine-5-carboxylic acid methyl ester], for which the “Human Hepatic Clearance” value in data set [1] is on record as 8.79 mL/min/kg. For the compound `COC(=O)C1=C(CN2CC(F)(F)C[C@H]2C(=O)O)NC(c2nccs2)=N[C@H]1c1ccc(C#N)cc1Cl` [Example 30, (R)-6-((S)-2-Carboxy-4,4-difluoro-pyrrolidin-1-ylmethyl)-4-(2-chloro-4-cyano-phenyl)-2-thiazol-2-yl-1,4-dihydro-pyrimidine-5-carboxylic acid methyl ester], the “Human Hepatic Clearance” value in data set [1] is on record as 6.56 mL/min/kg. For the same compound, in data set [2], the solubility (thermodynamic) was found to be 667 µg/mL (≈ 1280 µM). In the case of `CCOC(=O)C1=C(CN2CCOC[C@H]2C(=O)O)NC(c2cccc(C)n2)=N[C@H]1c1ccc(F)cc1Cl` [Example 37, (S)-4-[(R)-6-(2-Chloro-4-fluoro-phenyl)-5-ethoxycarbonyl-2-(6-methyl-pyridin-2-yl)-3,6-dihydro-pyrimidin-4-ylmethyl]-morpholine-3-carboxylic acid], in data set [1], the “Human Hepatic Clearance” value came to 7 mL/min/kg. In data set [2], this compound came in with a solubility (thermodynamic) of over 593 µg/mL. The corresponding values for `CCOC(=O)C1=C(CN2CC(F)(F)C[C@H]2C(=O)O)NC(c2nc(C(F)(F)F)cn2C)=N[C@H]1c1ccc(F)cc1Cl` [Example 40, (R)-6-((S)-2-Carboxy-4,4-difluoro-pyrrolidin-1-ylmethyl)-4-(2-chloro-4-fluoro-phenyl)-2-(1-methyl-4-trifluoromethyl-1H-imidazol-2-yl)-1,4-dihydro-pyrimidine-5-carboxylic acid ethyl ester] are 8.45 mL/min/kg and 409 µg/mL (≈ 689 µM).

In the case of `CCOC(=O)C1=C(CN2CC(F)(F)C[C@H]2C(=O)O)NC(c2nccs2)=N[C@H]1c1cccc(F)c1Br` [Example 67, (R)-4-(2-Bromo-3-fluoro-phenyl)-6-((S)-2-carboxy-4,4-difluoro-pyrrolidin-1-ylmethyl)-2-thiazol-2-yl-1,4-dihydro-pyrimidine-5-carboxylic acid ethyl ester], the “Human Hepatic Clearance” value in data set [1] is given as 6.42 mL/min/kg. Further, the solubility (thermodynamic) in data set [2] is 590 µg/mL (≈ 1030 µM).

As for `COC(=O)C1=C(CN2CC(F)(F)C[C@H]2C(=O)O)NC(c2nccs2)=N[C@H]1c1ccccc1Br` [Example 72, (R)-4-(2-Bromo-phenyl)-6-((S)-2-carboxy-4,4-difluoro-pyrrolidin-1-ylmethyl)-2-thiazol-2-yl-1,4-dihydro-pyrimidine-5-carboxylic acid methyl ester], the “Human Hepatic Clearance” value in data set [1] amounted to 5.16 mL/min/kg. In data set [2], the thermodynamic solubility is over 670 µg/mL.

`CC(C)(C)OC(=O)C1=C(CN2CCOC[C@H]2C(=O)O)NC(c2nccs2)=N[C@H]1c1ccc(F)cc1Cl` [Example 105, (S)-4-[5-tert-Butoxycarbonyl-6-(2-chloro-4-fluoro-phenyl)-2-thiazol-2-yl-3,6-dihydro-pyrimidin-4-ylmethyl]-morpholine-3-carboxylic acid]: the “Human Hepatic Clearance” value in data set [1] is listed as 8.13 mL/min/kg. Still for that read-out and setting: for `CCOC(=O)C1=C(CN2CCOC[C@H]2C(=O)O)NC(c2nccs2)=N[C@H]1c1ccc(Cl)cc1` [Example 126, (3S)-4-[[(4S)-4-(4-Chlorophenyl)-5-ethoxycarbonyl-2-(1,3-thiazol-2-yl)-1,4-dihydropyrimidin-6-yl]methyl]morpholine-3 carboxylic acid] the value was 0 mL/min/kg.
